One data set relates to blood platelets. The conditions noted are these: cited from earlier work; for effect on platelet aggregation: Gorman et al, Fitzpatrick et al.
Data set [1] deals with smooth muscle, blood vessels. As to conditions: cited from earlier work.
For data set [2] the following is noted: cited from earlier work.
For data set [3], the system named is human platelets. The experiment in a line: Platelet aggregation in citrated human platelet-rich plasma. The format is cell-based. On the procedure:
(§1) Platelet aggregation was studied in an aggregometer (Chronolog Corp., Phila., PA) using 0.5 ml citrated human platelet-rich plasma at 35° C. One minute after addition of analogue (up to 2 μl of a 25 mM solution in ethanol) aggregation was initiated by addition of sodium arachidonate (0.3-0.5 mM), ADP (2 μM) collagen (1 μg/ml), epinephrine (50 μM), 9,11-azo-PGH2, (0.1-0.6 μM), 9,11-methanoepoxy-PGH2, (0.3-0.6 μM), or 9,11-epoxy methano-PGH2 (1-3 μM). The analogues were also tested for their effects on the inhibition of ADP-induced aggregation by 2 nM prostacyclin or 20 nM prostaglandin D2.

The subject of another data set is cat coronary arteries. The experiment in a line: Cat coronary artery constriction (perfused right coronary artery, constriction induced by endoperoxide analogues). The conditions noted are these: for inhibition at 0.1 µM: analogue 100 nM. The data set is classed as cell-based. How it is done:
Thromboxane A2 analogues (up to 4 μl of a 2.5 mM solution in ethanol) were tested for their effects on cat coronary arteries continuously prefused with 10 ml Krebs-Henseleit solution as described below.
Cats of either sex (2.5-3.5 kg) were anesthetized with sodium pentobarbital (30 mg/kg) given intravenously. Hearts were reapidly excised and placed in oxygenated (95% O2 +5% CO2) ice-cold Krebs-Henseleit (K-H) solution of the following millimolar composition: NaCl, 118; KCl, 4.75; CaCl2.H2 O, 2.54; KH2 PO4, 1.19; MgSO4.7H2 O, 1.19; NaHCO3, 12.5; glucose, 10.00. A 20-gauge stainless steel cannula was inserted into the right coronary artery via the coronary ostium. Distal to the cannula, approximately 1 cm of coronary artery was dissected free of surrounding tissue. The section of right coronary artery with the cannula in place was excised from the heart and immediately transferred to a constant flow perfusion apparatus.
(§2) The perfusion apparatus consists of a reservoir containing 20 ml of warm (37° C.) oxygenated (95% O2 +5% CO2) K-H solution which bathes the coronary artery and serves as recirculating perfusate. An increase in perfusion pressure indicates vasoconstriction, whereas a decrease in perfusion pressure signifies vasodilation. Following an initial 1 hr. equilibrium period, vascular responsiveness was established by adding 25 mM KCl. After washing with fresh K-H solution for 20-30 minutes, the preparation achieved a relatively constant low basal tone. Basal perfusion pressure averaged 50±2.5 mm Hg. Fresh K-H dilutions of stock thromboxane analog concentrations were added to the perfusate reservoir in 0.1-0.2 ml volumes. Changes in perfusion pressure in response to thromboxane analogue addition generally plateaus within 5 minutes of administration. Constriction of the arteries was induced by addition of 15 or 30 nM 9,11-azo-prostaglandinendoperoxide (azo-PGH2), or 1 μM 9,11-methanoepoxy-PGH2. These compounds and their effects are described in the following references: Corey et al, PNAS, U.S.A. 72, 3355 (1975); Bundy, G. L., Tetr.Lett, 1957 (1975); Malmsten, C., Life Sci, 18, 169 (1976) and Smith, J. B., et al, in Platelets and Thrombosis, Ed. by Mills, D.C.B. et al, Academic Press, London/N.Y. 1977, pp 83-95. The effect of thromboxane analogues on the release of cathepsin D from the cat liver large granule fraction was determined as described in Lefer, A. M. et al, Science 200, 52 (1978). The effect of thromboxane analogues on the release of cathepsin D from the cat liver large granule fraction was determined as described in Lefer, A. M. et al, Science 200, 52 (1978).

A further data set concerns cat liver lysosomes. The experiment in a line: Release of cathepsin D from cat liver large granule fraction (lysosome stabilization). The format is cell-based. The conditions noted are these: 1 μM. How it is done: as §2, with “These compounds and their effects are described in the following references: Corey et al, PNAS, U.S.A. 72, 3355 (1975); Bundy, G. L., Tetr.Lett, 1957 (1975); Malmsten, C., Life Sci, 18, 169 (1976) and Smith, J. B., et al, in Platelets and Thrombosis, Ed. by Mills, D.C.B. et al, Academic Press, London/N.Y. 1977, pp 83-95.” left out, “(1978).” for “(1978). The effect of thromboxane analogues on the release of cathepsin D from the cat liver large granule fraction was determined as described in Lefer, A. M. et al, Science 200, 52 (1978).”

In data set [4] the target is T1, thromboxane synthetase (Oryctolagus cuniculus, UniProt G1TAZ9).
T1 sequence (G1TAZ9 1-530): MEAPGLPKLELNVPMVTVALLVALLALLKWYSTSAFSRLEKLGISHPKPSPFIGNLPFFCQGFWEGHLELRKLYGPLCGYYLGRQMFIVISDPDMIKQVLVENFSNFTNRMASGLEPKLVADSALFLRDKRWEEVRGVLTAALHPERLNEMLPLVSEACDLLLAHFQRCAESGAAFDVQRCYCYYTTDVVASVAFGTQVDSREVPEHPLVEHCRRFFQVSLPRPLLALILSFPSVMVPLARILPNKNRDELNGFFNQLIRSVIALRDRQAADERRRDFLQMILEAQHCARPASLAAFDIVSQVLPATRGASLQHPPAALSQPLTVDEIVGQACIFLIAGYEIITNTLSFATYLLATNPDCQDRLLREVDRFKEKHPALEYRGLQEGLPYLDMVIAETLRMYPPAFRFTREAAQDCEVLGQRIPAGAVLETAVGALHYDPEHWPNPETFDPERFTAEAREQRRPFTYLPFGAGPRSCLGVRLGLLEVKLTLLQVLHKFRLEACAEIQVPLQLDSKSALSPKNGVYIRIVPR
The experiment in a line: Thromboxane synthesis from 1-14C-arachidonic acid by washed rabbit platelets. The data set is classed as cell-based. How it is done: (§3) To study the effects of analogues on thromboxane synthesis, rabbit platelets were washed free of plasma, resuspended in buffered saline solution and incubated at 37° C. for 5 minutes with analogues at either 10 μM or 100 μM. Radioactive 1-^14 C-arachidonic acid (0.5 μCi, SA 50 Ci/mol, New England Nuclear, Boston, Mass.) was added and incubation was continued for 15 minutes, lipids were extracted by the method of Folch, J. Biol. Chem. 226, 497 (1957), and subjected to thin layer chromatography. In additional experiments, human platelet-rich plasma was incubated at 37° C. in the aggregometer for 1 minute with analogues. Sodium arachidonate (0.4 mM) was added and incubation was continued for 5 minutes. The samples were decanted into one-tenth vol. 100 mM EDTA, centrifuged for 2 minutes at 15,000 g, and thromboxane B2 in the supernatant was determined by radioimmunoassay.

The test system of data set [5] is thromboxane synthetase. The experiment in a line: Thromboxane B2 formation in human platelet-rich plasma (radioimmunoassay). The conditions noted are these: 50 μM. The data set is classed as cell-based. On the procedure: as §3
The next data set deals with Prostacyclin Synthetase. The experiment in a line: Prostacyclin synthetase, sheep vesicular glands, 1-14C-arachidonic acid as substrate. The format is biochemical. As to conditions: 100 μM; Table 1. How it is done: The effects of analogues on prostacyclin synthetase were determined using sheep vesicular glands as the enzyme source and 1-^14 C-arachidonic acid as substrate essentially as described by Cottee, F. et al, in Prostaglandins, 14, 413 (1978).

Data set [6] deals with human platelets. The experiment in a line: Effect on the inhibition of ADP-induced platelet aggregation by prostacyclin or prostaglandin D2. The format is cell-based. How it is done:
as §1

Data set [7] deals with Thromboxane Synthetase. The experiment in a line: Thromboxane synthetase inhibition (Table 1). The data set is classed as biochemical. The conditions noted are these: read-out: Inhibits Thromboxane Synthetase, ID50. On the procedure:
as §3

In another data set the test system is cyclooxygenase. The experiment in a line: Effect on cyclooxygenase, washed rabbit platelets. The conditions noted are these: inferred from prostaglandin increases. The data set is classed as cell-based. How it is done: as §3

Read-outs that look alike come from different tables or passages of the source.

Turning to `CCCCCCC=CC1C2CC(N=N2)C1CC=CCCCC(=O)O` (stereo not shown) [15-deoxy-9,11-azo-PGH2], the “effect on platelet aggregation” value in the data set with blood platelets was “inhibits platelet aggregation”.
For `CCCCC[C@H](O)/C=C/[C@H]1O[C@H]2C[C@H](O2)[C@@H]1C/C=C\CCCC(=O)O` [TA2, thromboxane A2], the thrombotic properties entry in the data set on blood platelets is listed as “potent thrombotic”. For the same compound, the “smooth muscle constricting properties” value in data set [1] is listed as “smooth muscle constricting”. Besides, the “half-life under physiological conditions” value in data set [2] (pH 7.4 and 37° C.) is on record as 30 seconds.
Turning to `CCCCCC(O)C=CC1C(O)CC2OC(=CCCCC(=O)O)CC21` (stereo not drawn) [Prostacyclin, 6,9α-oxido-11α, 15α-dihydroxyprosta (Z) 5, E(13)-dienoic acid], the “effect on platelet aggregates after they have formed” value in the data set on blood platelets is “destroys platelet aggregates after they have formed”. Besides, the “inhibition of blood platelet aggregation” value with blood platelets (compared with all prostaglandins discovered to date) is “most potent inhibitor of blood platelet aggregation”. The “dilation of blood vessels” value in data set [1] was “powerful action as a dilator of blood vessels”. Besides, the “half-life under physiological conditions” value in [2] (pH 7.4) is “about 2 minutes”.
As to `CCCCCC(O)C=CC1CC2CC(C1CC=CCCCC(=O)O)C2(C)C` (single isomer, unassigned) [16R epimer of the analogue III (R^1 =R^2 =--OH), Pinane Thromboxane A2, free acid], the “effectiveness as a prostaglandin endoperoxide antagonist, relative to the 16S epimer” value in the data set on human platelets [3] (compared with 16S epimer) was “approximately ten times less effective”.
`CCCCCC(O)C=CC1CC2CC(C1CC=CCCCC(=O)O)C2(C)C` (single isomer, unassigned) [III (R^1 =R^2 =OH, 16S), Pinane Thromboxane A2, free acid]: the IC50 in the data set with cat coronary arteries (Felis catus, Table 1, read-out: Inhibits Coronary Artery Contraction by Prostaglandin Endoperoxide Analogues, ID50) turned out to be 0.1 µM. Besides, the inhibition at 0.1 µM in the data set on cat coronary arteries (Felis catus, read-out: reduction of constriction induced by 15 nM 9,11-azo-PGH2) was found to be 73%. In addition, the inhibition at 0.1 µM in the data set on cat coronary arteries (Felis catus, read-out: reduction of constriction induced by 30 nM 9,11-azo-PGH2) was 50%. The “constriction induced by 30 nM 9,11-azo-PGH2” value in the data set on cat coronary arteries (analogue 1 μm) is listed as “abolished”. Moreover, the “inhibition of the release of cathepsin D from cat liver lysosomes” value with cat liver lysosomes (4 experiments) is recorded as “significant inhibition (p<0.005)”. Moreover, in the data set on cat liver lysosomes (Table 1), the “Stabilizes Lysosomes” value is on record as “Stabilizes Lysosomes”. For the same compound, in the data set with human platelets [3] (10 μM), the “platelet aggregation induced by arachidonic acid” value was “abolished”, the “platelet aggregation induced by collagen” value is “partially inhibited”, the “primary aggregation induced by ADP” value is given as “did not inhibit” and the “primary aggregation induced by epinephrine” value is “did not inhibit”. For the same compound, in the data set with human platelets [3] (10 μM), the “second wave of aggregation induced by ADP” value is given as “abolished” and the “second wave of aggregation induced by epinephrine” value is “abolished”. Also, in the data set with human platelets [3] (50 μM), the “arachidonic acid-induced aggregation in human platelet-rich plasma” value is listed as “abolished”. Further, in the data set with human platelets [3] (1-15 μM, dose-dependent), the “aggregation induced by 9,11-azo-PGH2” value is “inhibited”, the “aggregation induced by 9,11-epoxymethano-PGH2” value is on record as “inhibited” and the “aggregation induced by 9,11-methanoepoxy-PGH2” value is “inhibited”. In addition, in the data set on human platelets [3] (Homo sapiens, Platelet, Table 1, read-out: Inhibits Aggregation by Prostaglandin Endoperoxide Analogues, ID50), the IC50 stood at 2 µM. For the same compound, at thromboxane synthetase [4] (10 μM, read-out: inhibition of thromboxane B2 formation from 1-14C-arachidonic acid), the inhibition at 10 µM was determined as 23%. Further, at thromboxane synthetase [4] (100 μM, read-out: inhibition of thromboxane B2 formation from 1-14C-arachidonic acid), the inhibition at 100 µM is 83%. The “radioactive prostaglandins E2, D2 and F2 α” value at thromboxane synthetase [4] (with thromboxane B2 inhibition) was “corresponding increases”. In addition, the “reduction of thromboxane B2 formation in human platelet-rich plasma” value in the data set on thromboxane synthetase [5] came to 50%. Also, in the data set with Prostacyclin Synthetase, the “effect on Prostacyclin Synthetase” value was “no effect”. Moreover, in the data set on human platelets [6] (10 μM), the “effect on the inhibition of aggregation by prostaglandin D2” value is listed as “nor did it affect”. Also, in the data set with human platelets [6] (Table 1), the “effect on the Inhibition of Platelet Aggregation by Prostacyclin” value is reported as “no effect” and the “effect on the Inhibition of Platelet Aggregation by Prostaglandin D2” value is “no effect”. Further, the IC50 at Thromboxane Synthetase [7] came out at 50 µM. The effect on cyclooxygenase result in the data set on cyclooxygenase was “not on cyclooxygenase”.
For the compound `CCCCCC/C=C/C1C2CC(ON2)C1C/C=C\CCCC(=O)O` (stereo not shown) [15-deoxy-9,11-epoxyimino-PGH2], the “effect on platelet aggregation” value with blood platelets is reported as “inhibits platelet aggregation”.
Regarding `CCCCCC(O)C=CC1C2CC(N=N2)C1CC=CCCCC(=O)O` (stereo not shown) [9,11-azo-PGH2, 9, 11-azo prostaglandin endoperoxide, reference compound], the “Mean constriction at 15 nM 9,11-azo-PGH2” value in the data set with cat coronary arteries (15 nM, three experiments) was found to be 32 mm Hg. The “Mean constriction at 30 nM 9,11-azo-PGH2” value in the data set on cat coronary arteries (30 nM, three experiments) was 53 mm Hg. Besides, in the data set on blood platelets, the “effect on platelet aggregation” value is given as “has aggregating activity”.
